# Assay results taken from patent US20080254993A1, “Use of abscisic acid analogs to enhance growth control” (priority 2007, published 2008).
# Assays:
# Kentucky bluegrass = assay: Greenhouse study on Kentucky bluegrass: turfgrass height, clip weight, turfgrass quality (Example 1); assay type: in vivo; conditions: for Turfgrass quality: visual 0-9 scale, 9 best; for Turfgrass height and clip weight compared to the control (in words): trinexapac-ethyl 250 ppm, PBI-524 or PBI-429 50 ppm, alone or combined
# Method: Greenhouse studies were conducted at the Research Farm of Valent BioSciences Corporation (Long Grove, Ill.). Grasses were grown in pots (18 cm in diameter and 18 cm in height) filled with Promix BX (available from Premier Horticulture Inc. Quakertown, Pa.). Grass was irrigated daily by an overhead irrigation system. The irrigation system was set up with multiple Tornado Mist Spray Heads (10 GPH at 40 PSI-Wetted diameter, NDS/Raindrip, Woodland Hills, Calif.). Spray heads were 1-meter apart from each other and 75 cm above grass canopy. Grass was cut with a scissor at 2.5 cm height and fertilizer (1 g/L all purpose fertilizer 20-20-20, available from The Scotts Company, Marysville, Ohio) was applied once per week.
# (§1) Chemical solutions were prepared with distilled water. Tween 20 (0.05% v/v) was used as the surfactant when necessary. Trinexapac-ethyl (commercial product Primo Maxx, 11.3% active ingredient) was purchased from Syngenta Crop Protection Inc. (Greensboro, N.C.). ABA analogs, 8′ acetylene-ABA, acid (PBI-524), 8′ acetylene-ABA, ester (PBI-429), 8′ cyclopropane ester (PBI-696), or Tetralone, first carbon tail acetylene, ester (PBI-702), were obtained from Plant Biotechnology Institute, National Research Council of Canada (Saskatoon, Saskatchewan, Canada).
# (§2) Chemical solutions were foliar applied to the turfgrass canopy at the rate of 4-gallons/1000 square foot (or 0.163 L/m^−2) immediately after finishing the preparation of solutions. After treatment, turfgrasses were arranged in a randomized complete block experimental design. Turfgrass quality, turfgrass height or clip fresh weight was measured on assigned dates. Turfgrass quality was visually rated on a 0-9 scale based on the color, uniformity, and density of the grass with 0 as the worst and 9 as the best. Turfgrass height was measured as the distance between canopy surface and soil. Clippings were collected form each plot; all plots were cut to a uniform height.
# (§3) All experiments were randomized complete block experimental design. Data were analyzed by analysis of variance. Duncan's new multiple range tests at α=0.05 were used for mean separations.
# Kentucky bluegrass sod was purchased from Deak sod farms, Inc. (Union Grove, Wis.). Grass was grown in the greenhouse for 94 days for establishment. Turfgrass was treated with one time foliar application of 50 ppm PBI-524, PBI-429, PBI-696 or PBI-702 alone or in combination with 250 ppm trinexapac-ethyl. The turfgrass was cut every 7 days. Turfgrass quality, turfgrass height, and clip weight were measured on days 7 and 35 after treatment.
# creeping bentgrass = assay: Golf course green field study on creeping bentgrass with PBI-429: turfgrass height, soil moisture, turf quality (Example 2); assay type: in vivo, Penncross creeping bentgrass; conditions: for Turfgrass height (in words) / Soil moisture (in words): trinexapac-ethyl 25 ppm, PBI-429 50 ppm, alone or combined; for Turf quality: visual 0-9 scale, 9 best
# Method: Field studies were conducted at the nursery green or the practice green at Countryside golf course (Mundelein, Ill.). Both greens were sand based and growing Penncross creeping bentgrass. Grass was managed with typical Illinois golf course management practices.
# as §1, §2, §3
# Trinexapac-ethyl (25 ppm) or PBI-429 (50 ppm) were one time foliar applied alone or in combination to creeping bentgrass in the golf course green to investigate their effect on turfgrass quality, growth inhibition and soil moisture.
# tomato = assay: Tomato leaf transpiration, greenhouse, porometer (Example 5); assay type: in vivo, Tomato (variety: Rutgers); conditions: for Tomato leaf transpiration (in words): PBI-429 25-200 ppm, trinexapac-ethyl 250-2000 ppm, alone or combined, 3-14 days after treatment
# Excerpt: The effect of ABA analog (PBI-429) and trinexapac-ethyl combinations on transpiration and growth inhibition of dicotyledonous (tomato) was also examined in the greenhouse condition. Tomato (variety: Rutgers) seeds were sown in 18-cell flat filled with Promix PGX (available from Premier Horticulture Inc. Quakertown, Pa.) and grown for 3 weeks to allow for germination and initial growth. Plants were then transplanted into pots (18 cm in diameter and 18 cm in height), filled with Promix BX (available from Premier Horticulture Inc. Quakertown, Pa.), and grown for one week before the chemical treatment. Plants received daily irrigation and weekly fertilizer (1 g/L all purpose fertilizer 20-20-20, available from The Scotts Company, Marysville, Ohio). During the chemical treatment, a 24 mL (4 mL/plant) solution was foliar sprayed on the tomato canopy. Leaf transpiration rates were measured using a LI-1600 Steady State Porometer (LI-Cor, Lincoln, Nebr.) at 3, 5, 7, 10, and 14 days after treatment. The leaf transpiration rate was normalized to the percentage of control plant to minimize the experimental errors caused by environmental factors. Plant height was measured at 0, 3, 5, 7, 10 and 14 days after treatment. The growth rate was calculated based on the changes of plant height in certain intervals. The plants were harvested and the leaf number was counted at 14 days after treatment.
# [1] = 7 days after treatment, 250 ppm trinexapac-ethyl alone
# [2] = 35 days after treatment, 250 ppm trinexapac-ethyl alone
# [3] = 4 days after treatment, 25 ppm trinexapac-ethyl alone
# [4] = 7 days after treatment, 25 ppm trinexapac-ethyl alone
# [5] = 38 days after treatment, 25 ppm trinexapac-ethyl alone
# [6] = 7 days after treatment, 50 ppm ABA analog alone
# [7] = 35 days after treatment, 50 ppm ABA analog alone
# [8] = 4 days after treatment, 50 ppm PBI-429 alone
# [9] = 7 days after treatment, 50 ppm PBI-429 alone
# [10] = 38 days after treatment, 50 ppm PBI-429 alone
smiles,measurement,setting,value
"CCOC(=O)C1CC(=O)C(=C(O)C2CC2)C(=O)C1 (centres unmarked) [trinexapac-ethyl, reference compound]",Clip Weight,Kentucky bluegrass; [1],0.5 g
same,Turfgrass height,Kentucky bluegrass; [1],6.0 cm
same,Turfgrass quality,Kentucky bluegrass; [1],6.6
same,Turfgrass height and clip weight compared to the control (in words),Kentucky bluegrass; 7 days after treatment,reduced turfgrass height and clip weight compared to the control
same,Clip Weight,Kentucky bluegrass; [2],1.7 g
same,Turfgrass height,Kentucky bluegrass; [2],7.2 cm
same,Soil moisture,creeping bentgrass; [3],11.2%
same,Turfgrass height,creeping bentgrass; [3],7.3 mm
same,Turfgrass height (in words),creeping bentgrass; 4 days after treatment,did not reduce creeping bentgrass height
same,Soil moisture,creeping bentgrass; [4],12.7%
same,Turfgrass height,creeping bentgrass; [4],6.5 mm
same,Turf quality,creeping bentgrass; [4],7.3
same,Soil moisture (in words),creeping bentgrass; 7 days after treatment,increase soil moisture
same,Turfgrass height (in words),creeping bentgrass; 7 days after treatment,reduced turfgrass height similarly
same,Soil moisture,creeping bentgrass; [5],12.4%
same,Turfgrass height,creeping bentgrass; [5],6.0 mm
same,Turf quality,creeping bentgrass; [5],7.6
same,Soil moisture (in words),creeping bentgrass; 38 days after treatment,no longer effective
same,Turfgrass height (in words),creeping bentgrass; 38 days after treatment,no longer effective
same,Transpiration,"tomato; 250 ppm trinexapac-ethyl, 3 days after treatment",95 % of control
same,Transpiration,"tomato; 250 ppm trinexapac-ethyl, 5 days after treatment",95 % of control
same,Transpiration,"tomato; 250 ppm trinexapac-ethyl, 7 days after treatment",94 % of control
same,Transpiration,"tomato; 250 ppm trinexapac-ethyl, 10 days after treatment",94 % of control
same,Transpiration,"tomato; 250 ppm trinexapac-ethyl, 14 days after treatment",100 % of control
same,Transpiration,"tomato; 500 ppm trinexapac-ethyl, 3 days after treatment",94 % of control
same,Transpiration,"tomato; 500 ppm trinexapac-ethyl, 5 days after treatment",101 % of control
same,Transpiration,"tomato; 500 ppm trinexapac-ethyl, 7 days after treatment",94 % of control
same,Transpiration,"tomato; 500 ppm trinexapac-ethyl, 10 days after treatment",97 % of control
same,Transpiration,"tomato; 500 ppm trinexapac-ethyl, 14 days after treatment",97 % of control
same,Transpiration,"tomato; 1000 ppm trinexapac-ethyl, 3 days after treatment",100 % of control
same,Transpiration,"tomato; 1000 ppm trinexapac-ethyl, 5 days after treatment",95 % of control
same,Transpiration,"tomato; 1000 ppm trinexapac-ethyl, 7 days after treatment",94 % of control
same,Transpiration,"tomato; 1000 ppm trinexapac-ethyl, 10 days after treatment",101 % of control
same,Transpiration,"tomato; 1000 ppm trinexapac-ethyl, 14 days after treatment",100 % of control
same,Transpiration,"tomato; 2000 ppm trinexapac-ethyl, 3 days after treatment",94 % of control
same,Transpiration,"tomato; 2000 ppm trinexapac-ethyl, 5 days after treatment",96 % of control
same,Transpiration,"tomato; 2000 ppm trinexapac-ethyl, 7 days after treatment",93 % of control
same,Transpiration,"tomato; 2000 ppm trinexapac-ethyl, 10 days after treatment",91 % of control
same,Transpiration,"tomato; 2000 ppm trinexapac-ethyl, 14 days after treatment",96 % of control
same,Tomato leaf transpiration (in words),tomato,did not significantly inhibited tomato leaf transpiration
"C#CC1(C)CC(=O)C=C(C)C1(O)/C=C/C(C)=C\C(=O)OC (centres unmarked) [PBI-429, 8′ acetylene-ABA, ester]",Clip Weight,Kentucky bluegrass; [6],0.4 g
same,Turfgrass height,Kentucky bluegrass; [6],5.8 cm
same,Turfgrass quality,Kentucky bluegrass; [6],6.6
same,Turfgrass height and clip weight compared to the control (in words),Kentucky bluegrass; 7 days after treatment,reduced turfgrass height and clip weight compared to the control
same,Clip Weight,Kentucky bluegrass; [7],2.3 g
same,Turfgrass height,Kentucky bluegrass; [7],8.1 cm
same,Turfgrass height and clip weight (in words),Kentucky bluegrass; [7],no longer reduced turfgrass height and clip weight
same,Soil moisture,creeping bentgrass; [8],13.3%
same,Turfgrass height,creeping bentgrass; [8],6.7 mm
same,Soil moisture (in words),creeping bentgrass; 4 days after treatment,increase soil moisture
same,Turfgrass height (in words),creeping bentgrass; 4 days after treatment,reduced turfgrass height more than the combination of trinexapac-ethyl and PBI-429
same,Soil moisture,creeping bentgrass; [9],13.1%
same,Turfgrass height,creeping bentgrass; [9],6.3 mm
same,Turf quality,creeping bentgrass; [9],7.1
same,Soil moisture (in words),creeping bentgrass; 7 days after treatment,increase soil moisture
same,Turfgrass height (in words),creeping bentgrass; 7 days after treatment,reduced turfgrass height similarly
same,Soil moisture,creeping bentgrass; [10],12.9%
same,Turfgrass height,creeping bentgrass; [10],5.5 mm
same,Turf quality,creeping bentgrass; [10],8.0
same,Transpiration,"tomato; 25 ppm PBI-429, 3 days after treatment",53 % of control
same,Transpiration,"tomato; 25 ppm PBI-429, 5 days after treatment",61 % of control
same,Transpiration,"tomato; 25 ppm PBI-429, 7 days after treatment",75 % of control
same,Transpiration,"tomato; 25 ppm PBI-429, 10 days after treatment",80 % of control
same,Transpiration,"tomato; 25 ppm PBI-429, 14 days after treatment",103 % of control
same,Transpiration,"tomato; 50 ppm PBI-429, 3 days after treatment",36 % of control
same,Transpiration,"tomato; 50 ppm PBI-429, 5 days after treatment",32 % of control
same,Transpiration,"tomato; 50 ppm PBI-429, 7 days after treatment",42 % of control
same,Transpiration,"tomato; 50 ppm PBI-429, 10 days after treatment",69 % of control
same,Transpiration,"tomato; 50 ppm PBI-429, 14 days after treatment",99 % of control
same,Transpiration,"tomato; 100 ppm PBI-429, 3 days after treatment",34 % of control
same,Transpiration,"tomato; 100 ppm PBI-429, 5 days after treatment",29 % of control
same,Transpiration,"tomato; 100 ppm PBI-429, 7 days after treatment",38 % of control
same,Transpiration,"tomato; 100 ppm PBI-429, 10 days after treatment",55 % of control
same,Transpiration,"tomato; 100 ppm PBI-429, 14 days after treatment",98 % of control
same,Transpiration,"tomato; 200 ppm PBI-429, 3 days after treatment",26 % of control
same,Transpiration,"tomato; 200 ppm PBI-429, 5 days after treatment",24 % of control
same,Transpiration,"tomato; 200 ppm PBI-429, 7 days after treatment",28 % of control
same,Transpiration,"tomato; 200 ppm PBI-429, 10 days after treatment",34 % of control
same,Transpiration,"tomato; 200 ppm PBI-429, 14 days after treatment",71 % of control
same,Tomato leaf transpiration (in words),tomato,inhibited tomato leaf transpiration
